How the values were obtained:
DPP IV = target: T1, DPP IV (Mus musculus, UniProt P28843); test: DPP IV inhibitory activity in vivo: DPP IV activity in plasma of ICR mouse after single oral dose; conditions: oral 3 mg/kg, compared with Alogliptin and Vildagliptin (LAF237), FIG. 1-6
T1 construct: from tissue; host or cells: plasma of ICR mouse
Method: Animals: ICR mouse (8-10 weeks old; sex: male; 25 g-30 g of body weight, purchased from Shanghai SLAC Laboratory Animal Center).
Meanwhile the solvent group was used as blank control. The blood was taken from orbital venous plexus of the mouse before administration, and 30, 60, 2 h, 4 h, 6 h, 8 h and […] after administration, respectively and loaded into Eppendorf tube (Qizhong Industrial (Shanghai) co., Ltd.) treated by anticoagulant. The plasma was obtained by centrifugation and DPP IV activity was determined.

[1] = Safety evaluation: single dose 100 mg/kg by gavage, one week observation; type: in vivo, ICR mouse
Method: After grouping, each compound was administrated once through gavage according to the dose of 100 mg/kg at the same time.

[2] = normal ICR mouse, 100 mg/kg single dose, 7th day
[3] = normal ICR mouse, 100 mg/kg single dose, 1 d after administration
[4] = normal ICR mouse, 100 mg/kg single dose, 2 d after administration
[5] = normal ICR mouse, 100 mg/kg single dose, 3 d after administration
[6] = normal ICR mouse, 100 mg/kg single dose, 4 d after administration
[7] = normal ICR mouse, 100 mg/kg single dose, 5 d after administration
[8] = normal ICR mouse, 100 mg/kg single dose, 6 d after administration
[9] = normal ICR mouse, 100 mg/kg single dose, 7 d after administration
[10] = normal ICR mouse, 100 mg/kg single dose, before administration

T1 sequence (P28843 37-760 limits assumed): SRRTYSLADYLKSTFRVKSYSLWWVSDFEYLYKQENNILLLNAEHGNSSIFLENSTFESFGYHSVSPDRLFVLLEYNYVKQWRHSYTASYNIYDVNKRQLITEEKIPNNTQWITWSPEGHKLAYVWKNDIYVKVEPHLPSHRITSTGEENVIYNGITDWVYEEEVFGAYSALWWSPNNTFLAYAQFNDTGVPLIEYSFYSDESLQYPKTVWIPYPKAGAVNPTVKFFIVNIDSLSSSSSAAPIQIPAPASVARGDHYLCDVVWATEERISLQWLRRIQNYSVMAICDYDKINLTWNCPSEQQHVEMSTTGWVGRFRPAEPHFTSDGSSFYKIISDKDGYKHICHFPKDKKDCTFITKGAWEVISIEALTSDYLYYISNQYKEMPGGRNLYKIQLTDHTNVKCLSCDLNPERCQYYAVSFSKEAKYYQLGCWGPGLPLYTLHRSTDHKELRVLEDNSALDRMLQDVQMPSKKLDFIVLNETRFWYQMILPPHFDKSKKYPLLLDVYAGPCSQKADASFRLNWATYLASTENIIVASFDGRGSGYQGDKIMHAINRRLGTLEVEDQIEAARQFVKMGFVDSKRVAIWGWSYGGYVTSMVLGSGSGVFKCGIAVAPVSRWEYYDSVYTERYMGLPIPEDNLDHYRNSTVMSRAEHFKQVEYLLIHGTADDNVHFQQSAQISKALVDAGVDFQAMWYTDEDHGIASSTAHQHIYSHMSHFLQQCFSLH

SMILES: COC(=O)c1cc2nc(N3CCCC(N)C3)n(Cc3ccccc3C#N)c(=O)c2s1 (centres unmarked) [DC291407]
- DPP IV activity of ICR mouse plasma after single dose (given as hypoglycemic ability in vivo) (DPP IV): comparable to that of Alogliptin (3 mg), and better than that of Vildagliptin (LAF237, 15 mg)
- effect on body weight (conclusion) ([1]; ICR mouse, 100 mg/kg single dose): possibly had no effect on body weight
- acute toxicity ([1]; ICR mouse, 100 mg/kg single dose by gavage, one week): did not reflect obvious acute toxicity
- body weight versus normal control group (statistics) ([1]; ICR mouse, 100 mg/kg single dose, from second day to 7 days, 100 mg/kg): significant statistical difference
- kidney index versus normal control group (in words) ([1]; ICR mouse, 100 mg/kg, 7th day after administration): did not significantly differ
- spleen index versus normal control group (in words) ([1]; ICR mouse, 100 mg/kg, 7th day after administration, 100 mg/kg): significantly increased
- spleen index versus normal control group (in words) ([1]; ICR mouse, 100 mg/kg, 7th day after administration, listed as DC29147, 100 mg/kg): statistical difference
- Kidney index [1, 2]: 1.5 ± 0.2%
- Liver index [1, 2]: 5.3 ± 0.4%
- Spleen index [1, 2]: 0.4 ± 0.0 %
- body weight [1, 3]: 30.0 ± 1.6 g
- food consumption [1, 3]: 18.4 g · day^−1 · cage^−1
- body weight [1, 4]: 30.0 ± 1.7 g
- food consumption [1, 4]: 18.5 g · day^−1 · cage^−1
- body weight [1, 5]: 29.7 ± 1.9 g
- food consumption [1, 5]: 19.0 g · day^−1 · cage^−1
- body weight [1, 6]: 30.0 ± 1.5 g
- food consumption [1, 6]: 19.4 g · day^−1 · cage^−1
- body weight [1, 7]: 30.5 ± 1.5 g
- food consumption [1, 7]: 22.3 g · day^−1 · cage^−1
- body weight [1, 8]: 30.4 ± 1.8 g
- food consumption [1, 8]: 22.6 g · day^−1 · cage^−1
- body weight [1, 9]: 30.6 ± 1.9 g
- food consumption [1, 9]: 23.5 g · day^−1 · cage^−1
- body weight [1, 10]: 29.7 ± 1.8 g
- food consumption [1, 10]: 21.4 g · day^−1 · cage^−1

From US9045491B2, “Thienyl [3,2-D] pyrimidin-4-one compounds, preparation method, pharmaceutical compositions and use thereof” (SHANGHAI INSTITUTE OF MATERIA MEDICA, CHINESE ACADEMY OF …, priority 2011, dated 2015)
